Test results: patent US4971970A, “Benzoheterocyclic compounds” (Otsuka Pharmaceutical Company, Limited, priority 1988, dated 1990)

Test system: Escherichia coli No. 29 strain
Assay: Antimicrobial activity in vivo (ED50 in mice infected with Escherichia coli No. 29)
Details: mice (10 per group), i.p. infection with E. coli No. 29 (10^5 -10^6 cells/mouse) in mucin, compound oral one hour after infection, observed one week, Probit method, read-out: 50 % effective dose (ED50)
Description: Experiment (Antimicrobial activity in vivo)
Escherichia coli No. 29 strain was cultured in a nutrient medium at 37° C., and the culture broth was diluted with the same medium and thereto was added an equivolume of 6 % mucin solution to prepare a cell solution.
The cell solution thus prepared (0.5 ml) (e. coli cells; 10^5 -10^6 cells/mouse) was intraperitoneally administered to mice (10 mice per group). […] From the number of dead mice and the survival mice, the 50 % effective dose (ED50) of the test compound was calculated by Probit method.

Structure (SMILES): Cc1c(F)c(N2CCNC(C)C2)cc2c1c(=O)c(C=O)cn2C1CC1 (stereo not shown) [1-Cyclopropyl-6-fluoro-7-(3-methyl-1-piperazinyl)-5-methyl-3-formyl-1,4-dihydro-4-oxoquinoline]
- ED50: 0.331 mg/kg
